Assay results as given in patent US12053473B2, “Benzylamino substituted quinazolines and derivatives as SOS1 inhibitors” (priority 2016, dated 2024).
Where two headings read alike, the source gives them in different places.

Legend:
[1] = target: SOS1 and KRAS G12D (protein-protein interaction) (Homo sapiens, UniProt Q07889); test: KRAS::SOS1 AlphaScreen binding assay; settings: read-out: IC50 (SOS1)
Outline: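 Compounds were tested in duplicate at 11 concentrations (1:5 serial from 100 μM, 1% DMSO). They were preincubated 30 min with final 10 nM KRAS G12D, 10 μM GDP and 5 nM GST-SOS1, then glutathione acceptor and streptavidin donor beads (10 μg/mL each) were added for 60 min at RT in the dark. AlphaScreen signal gave IC50 via 4-parameter logistic fit.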

[2] = test system: cleaved PARP in NCI-H358 (KRAS G12C) NSCLC cells; type: cell-based, human; settings: NCI-H358, 3D, 10% serum; 1 μM I-13, 125 nM afatinib, alone or combined; 24 h, 48 h, 72 h
[3] = test system: KRAS G12C mutant MIA PaCa-2 pancreatic xenograft; type: in vivo, mouse; settings: monotherapy
Protocol: In Vivo Efficacy Experiments
Cultures are incubated at 37° C. and 5% CO2 in a humidified atmosphere, with medium change or subcultivation performed 2-3 times a week. For injection tumor cells are mixed with PBS including 5% FCS and Matrigel in a ratio of 1:1. 1×10EXP7 cells in a volume of 100 μL are injected subcutaneous in each mouse to establish tumors. […] The vehicle control, trametinib, 1-13 or the respective combination is administered intragastrically using a gavage needle at an application volume of 10 mL/kg in a volume of 10 mL/kg per mouse daily twice with a 6 h difference. Trametinib is dissolved in 0.5% DMSO and 0.5% Natrosol. Paclitaxel is formulated in 0.9% NaCl and is applied intravenously once a week at 10 mg/kg in a volume of 10 mL/kg. […]
Standardized irradiated diet (PROVIMI KLIBA) and autoclaved tap water are provided ad libitum. Microchips implanted subcutaneously under isoflurane anesthesia are used to identify each mouse. Cage cards showing the study number, the animal number, the compound and dose level, the administration route as well as the schedule remain with the animals throughout the study. The tumor diameter is measured two-three times a week with a caliper. The volume of each tumor [in mm^3] is calculated according to the formula “tumor volume=length*diameter2*π/6”. To monitor side effects of treatment, mice are inspected daily for abnormalities and body weight is determined daily. Animals are sacrificed at the end of the study. Animals with necrotic tumors or tumor sizes exceeding 1500 mm^3 are sacrificed early during the study for ethical reasons.
All compounds were applied twice daily per os (p.o.).

[4] = test system: phosphorylation of MEK1/2 (Ser217/221) in MIA PaCa-2 cells (KRAS G12C); test: MEK phosphorylation (Western blot) in MIA PaCa-2 cells; type: cell-based, human; settings: MIA PaCa-2, 2D; 25 nM trametinib alone or with 1 μM I-13; 2 h, 4 h, 8 h
Description: ERK and MEK Phosphorylation to Investigate the Combinatorial Effect of SOS1 Inhibitors with MEK Inhibitors
ERK and MEK phosphorylation assays are also used to investigate combinatorial effects of SOS1 inhibitors with MEK inhibitors, e.g. in MIA PaCa-2 cells.
• 96-well Ultra low binding plates from Corning (CLS2474-24EA); • DMEM (Lonza BE12-604F); • Fetal Bovine Serum (FBS) from HyClone (SH30071.03); • Cell lysate buffer (CLB):10× (Cell Signaling, Cat #9803)
For lysis of the cells a 1.2 fold concentrated CLB is used including the following supplements: 120 μL Cell Lysis Buffer 10×(Cell Signaling, Cat #9803)+870 μL H2O is supplemented with 10 μL HALT Protease & Phosphatase Inhibitor Cocktail (Thermo Scientific, Prod #1861281)+1 μL PMSF Stock sol. (Sigma, Cat #P7626) […]
ImageQuant LAS 4000 is used to induce a Chemilumescence signal that is detected with an Amersham Hyperfilm MP (GE Healthcare, Cat #28906847). […] Band quantification is performed by using the software “Image Quant TL” from GE Health.
MIA PaCa-2 cells are seeded at 1.16×E6 cells per 6 well plate in 2 mL DMEM medium supplemented with 2% FCS in 6 well plates. […] The protein concentration of the cell lysate is quantified by Bradford protein assay according to the manufacturer's instructions. […]
. Cell lysate was generated at the respective timepoints and the effect on ERK or MEK phosphorylation was analysed using Western-blotting. […]

[5] = test system: phosphorylation of ERK1/2 (Thr202/Tyr204) in MIA PaCa-2 cells (KRAS G12C); settings: MIA PaCa-2, 2D; 50 nM trametinib
Protocol: Secondary Antibody (incubated 1 h at room temperature): Use a blocking buffer with a 1:1000 dilution of the anti-Rabbit IgG-HRP (Dako, Cat #P0448)
ECL Western Blotting Detection Reagents (GE Healthcare, Cat #RPN2106)
The film is developed with the device Protec Optimax. Band quantification is performed by using the software “Image Quant TL” from GE Health.
Cells are incubated over night at 37° C. with 5% CO2. The next day inhibitors are added with a HP D300 digital Dispenser. Following addition of the respective inhibitor the 6-well plate is incubated for 24 h, 48 h or 72 h, respectively. At the respective timepoint cells are lysed. […] Following this the lysate is centrifuged (16000 rpm, 4° C. for 15 minutes) and the supernatant is stored at −80° C. and used for subsequent steps. The protein concentration of the cell lysate is quantified by Bradford protein assay according to the manufacturer's instructions. […]

CNC(=O)CC(C)c1cc2c(N[C@H](C)c3cccc(C(F)(F)F)c3)nc(C)nc2cc1OC (some centres unmarked) [I-381]
IC50 [1]: 0.017 µM

CONC(=O)CC(C)c1cc2c(N[C@H](C)c3cccc(C(F)(F)F)c3)nc(C)nc2cc1OC (some centres unmarked) [I-382]
IC50 [1]: 0.016 µM

COc1cc2nc(C)nc(N[C@H](C)c3cccc(C(F)(F)F)c3)c2cc1C(C)CC(=O)NC1CC1 (some centres unmarked) [I-383]
IC50 [1]: 0.021 µM

CN(C)C/C=C/C(=O)Nc1cc2c(Nc3ccc(F)c(Cl)c3)ncnc2cc1O[C@H]1CCOC1 [afatinib]
apoptosis induction (levels of cleaved PARP) [2]: needed 48 h to show apoptosis induction

Nc1ccn([C@@H]2O[C@H](CO)[C@@H](O)C2(F)F)c(=O)n1 [gemcitabine]
TGI ([3]; gemcitabine 50 mg/kg q4d i.p.): 4%

CC(=O)O[C@H]1C(=O)[C@@]2(C)[C@H]([C@H](OC(=O)c3ccccc3)[C@]3(O)C[C@H](OC(=O)[C@H](O)[C@@H](NC(=O)c4ccccc4)c4ccccc4)C(C)=C1C3(C)C)[C@]1(OC(C)=O)CO[C@@H]1C[C@@H]2O [paclitaxel]
TGI ([3]; paclitaxel 10 mg/kg q7d i.v., day 22): 62%

CC(=O)Nc1cccc(-n2c(=O)n(C3CC3)c(=O)c3c(Nc4ccc(I)cc4F)n(C)c(=O)c(C)c32)c1 [trametinib]
levels of phosphorylated MEK1/2 (Ser 217/221) [4]: increased levels of MEK1/2 (Ser 217/221)
TGI ([3]; trametinib 0.05 mg/kg twice daily p.o.): 50%
tumor regressions ([3]; trametinib 0.125 mg/kg or 0.05 mg/kg twice daily p.o.): no regressions in any tumors
TGI ([3]; trametinib 0.125 mg/kg twice daily p.o.): 73%
reduction of ERK1/2 (Thr 202/Tyr 204) phosphorylation levels compared to untreated control cells [5]: 65-75%
